This is an account of results in patent US8629141B2, “Spiro-oxindole MDM2 antagonists” (The Regents of the University of Michigan, priority 2011, dated 2014).

Molecules are shown by their SMILES. pIC50, pKi: −log10 of the molar value. A value given as a limit tells only on which side of the number the result lay.

Test system in one data set: not listed separately
Description: Stability of compounds in solution, 1:1 MeOH:H2O. To be noted: ultra performance liquid chromatography (FIG. 4). In kind it is physicochemical.
`O=C(NC1CN(C(=O)O)C1)[C@@H]1NC2(CCCCC2)[C@@]2(C(=O)Nc3cc(Cl)ccc32)[C@H]1c1cccc(Cl)c1F` [compound 39]: the Stability in solution entry is “more stable than MI-77301”.

Test system in the next data set: not listed separately
The data set can be described thus: Stability in 1:1 MeOH:H2O with 10% TFA. In kind it is physicochemical. To be noted: 1:1 MeOH:H2O with 10% TFA added, UPLC (FIG. 6). The method, then:
The stability of Compound Example Nos. 10 and 11 were determined in 1:1 MeOH:H2O with 10% TFA added using ultra performance liquid chromatography (FIG. 6).
As to `O=C(NC1CCC(O)CC1)[C@@H]1NC2(CCOCC2)[C@]2(C(=O)Nc3cc(Cl)ccc32)[C@H]1c1cccc(Cl)c1F` (some centres unmarked) [compound 10], the “Stability in solution (isomer conversion)” value is “converted into Compound Example No. 11”.

Another data set deals with recombinant human His-tagged MDM2 protein (residues 1-118) (Homo sapiens (Human), UniProt Q00987). The data set can be described thus: Fluorescence-polarization MDM2 competitive binding assay. To be noted: FP competition with PMDM6-F peptide (1 nM), MDM2 10 nM, 3 h incubation; read-out: Binding affinities to MDM2 (1-118) IC50. The method, then:
The binding affinity of the MDM2 inhibitors disclosed herein was determined using a fluorescence polarization-based (FP-based) binding assay using a recombinant human His-tagged MDM2 protein (residues 1-118) and a fluorescently tagged p53-based peptide.
(García-Echeverria et al., J. Med. Chem. 43: 3205-3208 (2000)). […] The assay was performed in the buffer: 100 mM potassium phosphate, pH 7.5; 100 μg/mL bovine gamma globulin; 0.02% sodium azide, 0.01% Triton X-100) and the polarization values were measured after 3 h of incubation using an ULTRA READER (Tecan U.S. Inc., Research Triangle Park, N.C.). […] The Kd value was calculated using the equation: Kd value=IC50−L0/2.
100 μg/mL bovine gamma globulin; 0.02% sodium azide, 0.01% Triton X-100), were added in a Dynex 96-well, black, round-bottom plate to produce a final volume of 125 μL. […] The polarization values were measured after 3 h of incubation. […] Curve fitting was performed using […] PRISM software (GraphPad Software, Inc., San Diego, Calif.).
For orientation: pIC50 means −log10 of the IC50, conventionally taken in molar units. As for `O=C(O)[C@@H]1NC2(CCCCC2)[C@@]2(C(=O)Nc3cc(Cl)ccc32)[C@H]1c1cccc(Cl)c1F` [Compound 26], the pIC50 was more than 6.30. Same read-out and setting: in the case of `O=C(NC1CCC(O)CC1)[C@@H]1NC[C@@]2(C(=O)Nc3cc(Cl)ccc32)[C@H]1c1cccc(Cl)c1F` (some centres unmarked) [Compound 5] it was less than 5.00; in that of `CC1(O)CC(NC(=O)[C@@H]2NC3(CCCCC3)[C@@]3(C(=O)Nc4cc(Cl)ccc43)[C@H]2c2cccc(Cl)c2F)C1` (some centres unmarked) [Compound 33], more than 7.00; in that of `CS(=O)(=O)CCNC(=O)[C@@H]1NC2(CCCCC2)[C@@]2(C(=O)Nc3cc(Cl)ccc32)[C@H]1c1cccc(Cl)c1F` [Compound 20], more than 7.00. The same measure, in the same setting: in the case of `O=C(NC1CN(C(=O)O)C1)[C@@H]1NC2(CCCCC2)[C@@]2(C(=O)Nc3cc(Cl)ccc32)[C@H]1c1cccc(Cl)c1F` [Compound 39] it was more than 7.00; in that of `CNC(=O)[C@@H]1NC2(CCCCC2)[C@@]2(C(=O)Nc3cc(Cl)ccc32)[C@H]1c1cc(Cl)cnc1OC(C)(C)C(=O)O` [Compound 35], less than 5.00; in that of `O=C(NCCN1CCOCC1)[C@@H]1NC2(CCC(F)(F)CC2)[C@]2(C(=O)Nc3cc(Cl)ccc32)[C@H]1c1cccc(Cl)c1F` [Compound 8], more than 5.30. Same read-out and setting: with `O=C(NCc1nnn[nH]1)[C@@H]1NC2(CCCCC2)[C@@]2(C(=O)Nc3cc(Cl)ccc32)[C@H]1c1cccc(Cl)c1F` [Compound 32] the figure was more than 7.00. Take `CCC1(CC)N[C@@H](C(=O)NCCN2CCOCC2)[C@H](c2cccc(Cl)c2F)[C@]12C(=O)Nc1cc(Cl)ccc12` [Compound 6]: the negative logarithm of the IC50 (pIC50) is more than 6.00. On to `O=C(NCCN1CCOCC1)[C@@H]1NC2(CCC(F)(F)CC2)[C@@]2(C(=O)Nc3cc(Cl)ccc32)[C@H]1c1cccc(Cl)c1F` [Compound 7], for which the pIC50 is more than 6.00. Same read-out and setting: in the case of `CS(=O)(=O)CCN1CCC(NC(=O)[C@@H]2NC3(CCCCC3)[C@@]3(C(=O)Nc4cc(Cl)ccc43)[C@H]2c2cccc(Cl)c2F)CC1` [Compound 25] it was more than 7.00; in that of `CC1(C)N[C@@H](C(=O)NC2CCC(O)CC2)[C@H](c2cccc(Cl)c2F)[C@]12C(=O)Nc1cc(Cl)ccc12` (some centres unmarked) [Compound 1], 6.70.

Consider `O=C(NCCN1CCOCC1)[C@@H]1NC2(CCOCC2)[C@@]2(C(=O)Nc3cc(Cl)ccc32)[C@H]1c1cccc(Cl)c1F` [Compound 12], for which the pIC50 is more than 5.30. The same measure, in the same setting: in the case of `O=C(NC1CCC(O)CC1)[C@@H]1NC2(CCCCC2)[C@@]2(C(=O)Nc3cc(Cl)ccc32)[C@H]1c1cccc(Cl)c1F` (some centres unmarked) [Compound 41] it was more than 7.00. On the same count and under the same terms, in the case of `O=C(NCCN1CCOCC1)[C@@H]1NC2(CCCCC2)[C@@]2(C(=O)Nc3cc(Cl)ccc32)[C@H]1c1cccc(Cl)c1F` [Compound 15] it was more than 7.00; in that of `CNC(=O)[C@@H]1NC2(CCCCC2)[C@@]2(C(=O)Nc3cc(Cl)ccc32)[C@H]1c1cc(Cl)ccc1OC(C)(C)C(=O)O` [Compound 34], less than 5.00.

Staying with this data set, now noted: FP competition with PMDM6-F peptide; read-out: Binding affinities to MDM2 (1-118) Ki.
In general, pKi refers to the Ki on a negative log10 scale, so that one unit is a factor of ten. On to `CC1(C)N[C@@H](C(=O)NC2CCC(O)CC2)[C@H](c2cccc(Cl)c2F)[C@]12C(=O)Nc1cc(Cl)ccc12` (some centres unmarked) [Compound 1], for which the pKi is 7.58.

Test system in another data set: not listed separately
Description: Stability of compounds in solution, 1:1 CH3CN:H2O. In kind it is physicochemical. To be noted: ultra performance liquid chromatography (FIG. 5).
With `O=C(NC1CN(C(=O)O)C1)[C@@H]1NC2(CCCCC2)[C@@]2(C(=O)Nc3cc(Cl)ccc32)[C@H]1c1cccc(Cl)c1F` [compound 39], the Stability in solution entry is listed as “more stable than MI-77301”.
